Assay results from PubChem BioAssay (NCI).
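Compound exposure: 48 hours, 5 concentrations, 96-well plates. GI50 is the concentration that inhibits growth by half. Definition used: TGI = concentration required for complete inhibition of growth.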

Assays:
Assay in all cases: NCI tumour cell line growth inhibition, 48 h
HOP-62 NSCLC = test system: HOP-62 NSCLC
SN12C renal = test system: SN12C renal
UO-31 renal = test system: UO-31 renal
PC-3 prostate = test system: PC-3 prostate
SW-620 colon = test system: SW-620 colon
NCI/ADR-RES ovarian = test system: NCI/ADR-RES ovarian
CAKI-1 renal = test system: CAKI-1 renal
LOX IMVI melanoma = test system: LOX IMVI melanoma
CCRF-CEM leukemia = test system: CCRF-CEM leukemia
A498 renal = test system: A498 renal
KM12 colon = test system: KM12 colon
IGROV1 ovarian = test system: IGROV1 ovarian
BT-549 breast = test system: BT-549 breast
MCF7 breast = test system: MCF7 breast
786-0 renal = test system: 786-0 renal
SK-MEL-2 melanoma = test system: SK-MEL-2 melanoma
SF-295 CNS = test system: SF-295 CNS
RXF 393 renal = test system: RXF 393 renal
OVCAR-4 ovarian = test system: OVCAR-4 ovarian
SNB-19 CNS = test system: SNB-19 CNS
NCI-H226 lung = test system: NCI-H226 lung
ACHN renal = test system: ACHN renal
HCT-116 colon = test system: HCT-116 colon
SK-OV-3 ovarian = test system: SK-OV-3 ovarian
SK-MEL-5 melanoma = test system: SK-MEL-5 melanoma
M14 melanoma = test system: M14 melanoma
A549 NSCLC = test system: A549 NSCLC
HCC-2998 colon = test system: HCC-2998 colon
MDA-MB-435 = test system: MDA-MB-435
HCT-15 colon = test system: HCT-15 colon
HS 578T breast = test system: HS 578T breast
RPMI-8226 leukemia = test system: RPMI-8226 leukemia
HL-60(TB) leukemia = test system: HL-60(TB) leukemia
SNB-75 CNS = test system: SNB-75 CNS
UACC-257 melanoma = test system: UACC-257 melanoma
T-47D breast = test system: T-47D breast
SF-539 CNS = test system: SF-539 CNS
UACC-62 melanoma = test system: UACC-62 melanoma
DU-145 prostate = test system: DU-145 prostate
OVCAR-5 ovarian = test system: OVCAR-5 ovarian
EKVX NSCLC = test system: EKVX NSCLC
HT29 colon = test system: HT29 colon
SF-268 CNS = test system: SF-268 CNS
NCI-H460 lung = test system: NCI-H460 lung
NCI-H522 lung = test system: NCI-H522 lung
MDA-MB-231 breast = test system: MDA-MB-231 breast
COLO 205 colon = test system: COLO 205 colon
TK-10 renal = test system: TK-10 renal
K-562 leukemia = test system: K-562 leukemia
SK-MEL-28 melanoma = test system: SK-MEL-28 melanoma
HOP-92 NSCLC = test system: HOP-92 NSCLC
U251 CNS = test system: U251 CNS
OVCAR-8 ovarian = test system: OVCAR-8 ovarian
MALME-3M melanoma = test system: MALME-3M melanoma

CS(=O)(=O)c1nccc(-c2c(-c3cccc(OCc4ccc(Cl)c(C(F)(F)F)c4)c3)nc3sccn23)n1
GI50 (HOP-62 NSCLC): 7.26 µM | TGI (HOP-62 NSCLC): 14.1 µM | GI50 (SN12C renal): 7.07 µM | TGI (SN12C renal): 23.1 µM | GI50 (UO-31 renal): 7.16 µM | TGI (UO-31 renal): 13.7 µM | GI50 (PC-3 prostate): 1.8 µM | TGI (PC-3 prostate): 6.61 µM | GI50 (SW-620 colon): 1.79 µM | TGI (SW-620 colon): 6.84 µM | GI50 (NCI/ADR-RES ovarian): 9 µM | TGI (NCI/ADR-RES ovarian): 19.1 µM | GI50 (CAKI-1 renal): 7.54 µM | TGI (CAKI-1 renal): 14.7 µM | GI50 (LOX IMVI melanoma): 0.809 µM | TGI (LOX IMVI melanoma): 1.63 µM | GI50 (CCRF-CEM leukemia): 1.67 µM | TGI (CCRF-CEM leukemia): > 50 µM | GI50 (A498 renal): 7.15 µM | TGI (A498 renal): 13.8 µM | GI50 (KM12 colon): 9.47 µM | TGI (KM12 colon): 17.8 µM | GI50 (IGROV1 ovarian): 1.64 µM | TGI (IGROV1 ovarian): 5.95 µM | GI50 (BT-549 breast): 1.52 µM | TGI (BT-549 breast): 5.51 µM | GI50 (MCF7 breast): 0.937 µM | TGI (MCF7 breast): 1.98 µM | GI50 (786-0 renal): 8.45 µM | TGI (786-0 renal): 15.3 µM | GI50 (SK-MEL-2 melanoma): 3.31 µM | TGI (SK-MEL-2 melanoma): 9.61 µM | GI50 (SF-295 CNS): 7.15 µM | TGI (SF-295 CNS): 15.2 µM | GI50 (RXF 393 renal): 4.31 µM | TGI (RXF 393 renal): 10.9 µM | GI50 (OVCAR-4 ovarian): 6.46 µM | TGI (OVCAR-4 ovarian): 13.8 µM | GI50 (SNB-19 CNS): 6.53 µM | TGI (SNB-19 CNS): 13 µM | GI50 (NCI-H226 lung): 2.4 µM | TGI (NCI-H226 lung): 11.9 µM | GI50 (ACHN renal): 5.6 µM | TGI (ACHN renal): 11.6 µM | GI50 (HCT-116 colon): 6.53 µM | TGI (HCT-116 colon): 12.9 µM | GI50 (SK-OV-3 ovarian): 10.3 µM | TGI (SK-OV-3 ovarian): 33.7 µM | GI50 (SK-MEL-5 melanoma): 7.98 µM | TGI (SK-MEL-5 melanoma): 14.9 µM | GI50 (M14 melanoma): 6.93 µM | TGI (M14 melanoma): 14.1 µM | GI50 (A549 NSCLC): 18.1 µM | TGI (A549 NSCLC): > 50 µM | GI50 (HCC-2998 colon): 0.91 µM | TGI (HCC-2998 colon): 1.68 µM | GI50 (MDA-MB-435): 9.02 µM | TGI (MDA-MB-435): 17.9 µM | GI50 (HCT-15 colon): 1.02 µM | TGI (HCT-15 colon): 2.42 µM | GI50 (HS 578T breast): 1.69 µM | TGI (HS 578T breast): 8.73 µM | GI50 (RPMI-8226 leukemia): 1.33 µM | TGI (RPMI-8226 leukemia): 3.64 µM | GI50 (HL-60(TB) leukemia): 0.997 µM | TGI (HL-60(TB) leukemia): 2.52 µM | GI50 (SNB-75 CNS): 6.74 µM | TGI (SNB-75 CNS): 17.9 µM | GI50 (UACC-257 melanoma): 4.04 µM | TGI (UACC-257 melanoma): 10.8 µM | GI50 (T-47D breast): 0.881 µM | TGI (T-47D breast): 1.82 µM | GI50 (SF-539 CNS): 7.64 µM | TGI (SF-539 CNS): 15 µM | GI50 (UACC-62 melanoma): 8.49 µM | TGI (UACC-62 melanoma): 16.9 µM | GI50 (DU-145 prostate): 5.01 µM | TGI (DU-145 prostate): 10.8 µM | GI50 (OVCAR-5 ovarian): 8.78 µM | TGI (OVCAR-5 ovarian): 18.8 µM | GI50 (EKVX NSCLC): 6.92 µM | TGI (EKVX NSCLC): 14.4 µM | GI50 (HT29 colon): 7.99 µM | TGI (HT29 colon): 16.3 µM | GI50 (SF-268 CNS): 8.49 µM | TGI (SF-268 CNS): 17.6 µM | GI50 (NCI-H460 lung): 2 µM | TGI (NCI-H460 lung): 7.28 µM | GI50 (NCI-H522 lung): 1.65 µM | TGI (NCI-H522 lung): 8.06 µM | GI50 (MDA-MB-231 breast): 1.07 µM | TGI (MDA-MB-231 breast): 2.38 µM | GI50 (COLO 205 colon): 7.02 µM | TGI (COLO 205 colon): 13.9 µM | GI50 (TK-10 renal): 7.99 µM | TGI (TK-10 renal): 14.9 µM | GI50 (K-562 leukemia): 2.1 µM | TGI (K-562 leukemia): > 50 µM | GI50 (SK-MEL-28 melanoma): 6.48 µM | TGI (SK-MEL-28 melanoma): 13.1 µM | GI50 (HOP-92 NSCLC): 2.17 µM | TGI (HOP-92 NSCLC): 9.74 µM | GI50 (U251 CNS): 7.53 µM | TGI (U251 CNS): 14.4 µM | GI50 (OVCAR-8 ovarian): 7.09 µM | TGI (OVCAR-8 ovarian): 13.8 µM | GI50 (MALME-3M melanoma): 7.27 µM | TGI (MALME-3M melanoma): 14.6 µM
